This note sets out measurements from US11034702B2, “Thienoisoquinolines and their derivatives for the treatment of cancer” (VALORBEC, SOCIÉTÉ EN COMMANDITE, priority 2016, dated 2021).

“Also recorded” adds a separate entry of the source.

The subject of assay [1] is HeLa (cervical adenocarcinoma) cells. Briefly: IC50 (viability) in HeLa cells. Format: cell-based, human. The protocol:
(§1) 19 variants with different structural modifications have been made. […] In particular, it is shown that C75 causes death in multiple cancer cells with IC50 values in the 100 nM range, including breast cancers (MCF7, BT549), lung cancer (A549), colorectal cancer (HCT116) in addition to HeLa cells (cervical cancer).

The subject of assay [2] is MCF-7 (mammary gland carcinoma) cells. In words: IC50 (viability) in MCF-7 cells. In kind it is cell-based. The settings on record: Homo sapiens, MCF7. The protocol:
as §1

The next assay concerns HeLa cells. In words: Mitotic arrest (percentage of cells in mitosis) in HeLa cells. Format: cell-based, human. The protocol:
(§2) There were more rounded mitotic cells after C75 treatment in comparison to the control. FIG. 1B) is a line graph showing the percentage of HeLa and HFF1 cells in mitosis after treatment with various concentrations of C75 for 8 hours. The bars indicate standard deviation. FIG. 1C) is a series of images showing cells that were fixed and co-stained for tubulin (microtubules) and DAPI (DNA). Treatment of HeLa cells with 300 nM C75 caused the mitotic spindles to be disorganized, while they were not affected in HFF1 cells. […] The scale bar for the cells is 10 μm. FIG. 1D) is a cartoon schematic showing the key features of a metaphase cell.
(§3) FIG. 2A) is a line graph showing the percentage of HCT116 (p53−/−) cells, A549 cells, HeLa cells and H1299 cells in mitosis after treatment with various concentrations of C75 for one population doubling time. All of the cell lines show an increase in the proportion of mitotic cells after treatment with 200 nM C75. The bars indicate standard deviation. […] While the mitotic spindles were not dramatically altered by C75 in HFF1 cells, they were monopolar (as shown) or fragmented in the other cell types. […] The mitotic spindles were more strongly fragmented after C75 treatment in these cells vs. the cells in FIG. 2B). […] While mitotic spindles recovered bipolarity after removing nocodazole, they remained multipolar after removing C75. FIG. 2F) is a series of time-lapse images of a live HeLa cell expressing GFP:tubulin after treatment with C75 as shown in 2D) and 2E). The scale bar for all cells is 10 μm. FIG. 2G) is a schematic showing the putative target for C75. Healthy cells have two centrosomes that separate and form a bipolar spindle, while cancer cells have aberrant centrosomes that cluster to form ‘pseudo’ bipolar spindles, and C75 may target this process and their integrity.
FIG. 3A) is a line graph showing the percentage of mitotic HeLa or HFF1 cells treated with a range of paclitaxel (Taxol™; tubulin-targeting drug) concentrations+/−C75 as indicated. The bars indicate standard deviation. […]

The subject of a further assay is HFF1 cells. Briefly: Mitotic spindle phenotype in HFF1 cells. In kind it is cell-based. The protocol:
as §2
FIG. 2A) is a line graph showing the percentage of HCT116 (p53−/−) cells, A549 cells, HeLa cells and H1299 cells in mitosis after treatment with various concentrations of C75 for one population doubling time. All of the cell lines show an increase in the proportion of mitotic cells after treatment with 200 nM C75. The bars indicate standard deviation. […]
(§4) C75 was also tested for efficacy in different cancer cell lines. […] To further assess the role of C75 in affecting centrosomes, HeLa cells were treated with C75 for a short period of time (5 minutes), then C75 was removed and the cells were analyzed for spindle phenotypes (schematic in FIG. 2D). […]

For the next assay, the system named is HCT116 cells. Briefly: Mitotic spindle phenotype and centrosome fragment distance in HCT116 cells. Format: cell-based. On the procedure:
as §3
FIG. 3A) is a line graph showing the percentage of mitotic HeLa or HFF1 cells treated with a range of paclitaxel (Taxol™; tubulin-targeting drug) concentrations+/−C75 as indicated. The bars indicate standard deviation. FIG. 3B) is a series of bar graphs showing the proportion of HCT116 cells that have monopolar spindles, bipolar spindles with aligned chromosomes, bipolar spindles with misaligned chromosomes and multipolar/fragmented spindles after treatments as shown. Treatments include DMSO (control), varying concentrations of paclitaxel and/or varying concentrations of C75 after 7 hours. While treatment of HCT116 cells with 2.5 nM paclitaxel caused a threshold of mitotic spindle phenotypes, adding increasing concentrations of C75 in combination with 2.5 nM paclitaxel caused the phenotypes to progressively worsen. FIG. 3C) is bar graph showing the average distance between centrosome fragments in HCT116 cells after treatments as shown. While centrosome fragments moved closer together with increased concentrations of paclitaxel, they moved further apart with increased concentrations of C75. […] FIG. 3E) is a line graph showing the percentage of mitotic HeLa or HFF1 cells treated with a range of nocodazole concentrations+/−C75 as indicated. The bars indicate standard deviation. […]
as §4

A word on the IC50: it is the concentration needed to halve the response being measured. Read a low IC50 as inhibition by little substance.

Consider `COc1ccc(S(=O)(=O)N2Cc3ccccc3-c3sc(Br)cc32)cc1` [Compound C75], for which the IC50 turned out to be 27 nM in assay [1] (Homo sapiens, HeLa cells, cells printed in nM) and 0.101 µM in assay [2]. Moreover, the “efficacy (effect on viability) in cancer cells vs. non-cancer cells” value in assay [1] (comparison of Table 3 IC50 values, cancer vs. non-cancer cells) is on record as “higher efficacy”. Moreover, in the assay on HeLa cells (HeLa vs. HFF1 cells, percentage of mitotic cells, tubulin drug +/- C75), the “effect of C75 on selectivity of paclitaxel and nocodazole” value is “enhances the selectivity”. In addition, the “concentration causing mitotic arrest” value in the assay with HeLa cells (HeLa, within one population doubling time) was 100 to 200 nM. The “selectivity of mitotic arrest, HeLa vs. HFF1” value in the assay on HeLa cells (nanomolar concentrations, 8 hours) is recorded as “selectively causes mitotic arrest”. In addition, the mitotic spindle phenotype entry is reported as “not affected; also recorded: majority of HFF1 cells had bipolar spindles” in the assay with HFF1 cells (HFF1, 300 nM); “disorganized” with HFF1 cells (HFF1, 750 nM); “most of the spindles were severely fragmented” with HCT116 cells (HCT116 (p53-/-), 300 nM, 6-8 hours). In addition, the “effect of C75 on phenotypes caused by paclitaxel” value with HCT116 cells (HCT116, 2.5 nM paclitaxel + increasing C75, 7 hours) was “enhances the phenotypes”. Further, the “change of centrosome fragment distance when paclitaxel was combined with C75” value with HCT116 cells (HCT116, paclitaxel + C75) was “significant increase in fragment distance”.
